Assay results from ChEMBL document CHEMBL1201862, “PubChem BioAssay data set” (2004).
Calls of active or inactive are those of the source.

Key:
Hexokinase HKDC1 = target: T1, Hexokinase HKDC1 (Homo sapiens, UniProt Q2TB90); assay: HKDC1 hexokinase inhibitors, dose response, biochemical, W721R variant (AID 504729); assay type: functional
T1 sequence (Q2TB90 whole entry): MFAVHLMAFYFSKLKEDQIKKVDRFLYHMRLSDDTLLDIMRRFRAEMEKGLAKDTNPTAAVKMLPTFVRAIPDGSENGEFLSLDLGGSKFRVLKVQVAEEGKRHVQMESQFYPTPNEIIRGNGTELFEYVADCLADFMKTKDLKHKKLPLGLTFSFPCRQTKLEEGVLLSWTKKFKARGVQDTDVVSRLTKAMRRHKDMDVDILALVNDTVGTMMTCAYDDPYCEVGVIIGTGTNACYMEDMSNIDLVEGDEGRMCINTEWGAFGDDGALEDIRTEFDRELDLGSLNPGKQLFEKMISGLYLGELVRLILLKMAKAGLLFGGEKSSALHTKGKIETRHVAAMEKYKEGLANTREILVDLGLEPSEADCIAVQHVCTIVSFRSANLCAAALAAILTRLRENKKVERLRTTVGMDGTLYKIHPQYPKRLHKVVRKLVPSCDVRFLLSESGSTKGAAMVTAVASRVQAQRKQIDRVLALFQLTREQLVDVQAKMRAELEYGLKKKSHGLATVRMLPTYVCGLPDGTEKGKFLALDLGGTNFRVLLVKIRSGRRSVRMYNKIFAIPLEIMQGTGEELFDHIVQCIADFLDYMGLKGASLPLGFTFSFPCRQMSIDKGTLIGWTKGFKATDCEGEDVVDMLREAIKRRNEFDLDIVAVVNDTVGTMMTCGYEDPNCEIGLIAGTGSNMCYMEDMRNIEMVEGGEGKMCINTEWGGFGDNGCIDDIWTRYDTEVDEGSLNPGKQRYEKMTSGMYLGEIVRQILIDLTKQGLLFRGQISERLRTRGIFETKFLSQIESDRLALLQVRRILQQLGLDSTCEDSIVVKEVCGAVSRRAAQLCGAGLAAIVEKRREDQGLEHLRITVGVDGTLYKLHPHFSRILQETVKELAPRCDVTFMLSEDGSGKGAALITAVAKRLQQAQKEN

[1] = inhibition of K1F phage lysis, E. coli UTI89, bacterial capsule biogenesis inhibitors, alamar blue (AID 488966); assay type: functional
[2] = target: T2, G-protein coupled receptor 55 (Homo sapiens, UniProt Q9Y2T6); assay: GPR55 antagonists blocking LPI-driven arrestin recruitment, primary screen, imaging, U2OS, beta-arrestin-GFP, LPI agonist (AID 2013); assay type: functional;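 note: antagonist potency measured as reduced agonist-driven arrestin aggregation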
[3] = target: Heat shock protein HSP 90-alpha (Homo sapiens, UniProt P07900); assay type: functional, organism-based
[4] = target: T2, G-protein coupled receptor 55; assay: GPR55 agonists via beta-arrestin recruitment, primary screen, imaging, U2OS cells, beta-arrestin-GFP redistribution (AID 1961); assay type: functional
[5] = target: Eukaryotic translation initiation factor 4H (Homo sapiens, UniProt Q15056); assay: eIF4H inhibition in translation initiation, SAR follow-up (AID 435011); assay type: functional
[6] = target: Polyadenylate-binding protein 1 (Homo sapiens, UniProt P11940); assay: PABP inhibition in translation initiation, SAR follow-up (AID 435018); assay type: functional
Coagulation factor XII = target: T3, Coagulation factor XII (Homo sapiens, UniProt P00748); assay type: functional;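 note: activated factor XIIa alpha cleaving a fluorogenic AMC peptide substrate; inhibitor potency from loss of enzyme activity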
T3 sequence (P00748 whole entry): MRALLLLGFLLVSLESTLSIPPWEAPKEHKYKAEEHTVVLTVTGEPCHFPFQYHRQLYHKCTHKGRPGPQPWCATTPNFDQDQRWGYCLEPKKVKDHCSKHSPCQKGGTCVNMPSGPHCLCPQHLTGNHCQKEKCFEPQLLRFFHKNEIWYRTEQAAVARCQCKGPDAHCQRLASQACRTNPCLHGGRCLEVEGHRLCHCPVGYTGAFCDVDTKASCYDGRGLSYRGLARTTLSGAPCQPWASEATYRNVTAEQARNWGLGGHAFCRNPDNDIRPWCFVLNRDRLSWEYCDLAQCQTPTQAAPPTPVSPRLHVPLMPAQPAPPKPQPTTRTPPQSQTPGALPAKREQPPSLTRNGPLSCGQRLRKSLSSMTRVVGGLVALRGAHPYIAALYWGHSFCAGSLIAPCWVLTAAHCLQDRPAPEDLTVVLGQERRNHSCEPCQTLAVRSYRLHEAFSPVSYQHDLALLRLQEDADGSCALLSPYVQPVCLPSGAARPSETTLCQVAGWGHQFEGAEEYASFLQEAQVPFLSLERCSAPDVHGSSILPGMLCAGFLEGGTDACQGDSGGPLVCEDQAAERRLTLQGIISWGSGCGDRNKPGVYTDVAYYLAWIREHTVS

[7] = target: Induced myeloid leukemia cell differentiation protein Mcl-1 (Homo sapiens, UniProt Q07820); assay type: functional
X-box-binding protein 1 = X-box-binding protein 1 (Homo sapiens, UniProt P17861); assay type: functional, Cricetulus griseus;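 note: confirmatory dose-response counter-screen serving a CHOP assay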
[8] = target: T4, Delta-type opioid receptor (Homo sapiens, UniProt P41143); assay: HTS Image-Based Screen for Antagonists of the DOR Receptor. [Related pubchem assays (depositor defined):AID1777, AID1785, AID1786, AID2133]; assay type: functional
Mu-type opioid receptor = Mu-type opioid receptor (Homo sapiens, UniProt P35372); assay: HTS Image-Based Screen for Agonists of the MOR Receptor. [Related pubchem assays (depositor defined):AID1777, AID1785, AID1786, AID2133]; assay type: functional;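 note: imaging of beta-arrestin GFP recruitment into spots after receptor activation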
[9] = insulin promoter down-regulators in MIN6 cells, imaging, high-content screening, mouse beta cells (AID 1628); assay type: functional
[10] = system: Streptococcus sp. 'group A'; assay: growth inhibition of control SK(-) GAS strain, dose response, counter-screen for streptokinase expression inhibitor project, luminescence, kanamycin, BacTiterGlo, confirmation (AID 1900); assay type: functional, organism-based
[11] = target: T4, Delta-type opioid receptor; assay: HTS Image-Based Screen for Agonists of the DOR Receptor. [Related pubchem assays (depositor defined):AID1777, AID1786, AID2133]; assay type: functional
[12] = cytotoxicity in MIN6 insulinoma cells, dose response, cytotoxicity control, cell-based, mouse insulinoma (AID 2122); assay type: functional;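 note: confirmatory high-throughput counterscreen run to flag cytotoxic compounds; mouse MIN-6 beta cells carrying an insulin promoter eGFP reporter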
[13] = M. tuberculosis H37Rv growth inhibitors, H37Rv strain (AID 1626); assay type: functional
[14] = target: T5, Kappa-type opioid receptor (Homo sapiens, UniProt P41145); assay type: functional
Beta-galactosidase = Beta-galactosidase (Escherichia coli, UniProt Q8VNN2); assay type: functional
[15] = target: T5, Kappa-type opioid receptor; assay type: functional; remark: listed apart in the source
Streptococcus = assay: Group A Streptococcus viability loss, dose response, counter-screen for streptokinase expression inhibitor project, luminescence, BacTiterGlo (AID 1915); assay type: functional, organism-based;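 note: potency for reduction of bacterial viability or growth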
INS1 = assay: beta cell apoptosis inhibitors, cytokine rescue, dose response, luminescence, retest (AID 449756); assay type: functional, cell-based; conditions: Rattus norvegicus;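 note: cell death triggered by IL-1 beta plus TNF-alpha plus IFN-gamma mixture; protective hits raise ATP signal compared with cytokine alone wells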
[16] = Shn3 3'UTR reporter inhibitors, dose response, cell-based, Clone20 osteoblasts, firefly luciferase, cherry-picked (AID 624132); assay type: functional;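 note: firefly luciferase luminescence from reporter carrying the Shn3 3'UTR in osteoblasts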
[17] = HepG2 cell cytotoxicity, dose response, cytotoxicity control for Shn3 inhibitor project, CellTiter-Glo, cherry-picked (AID 624134); assay type: functional, cell-based
[18] = control 3'UTR Renilla luciferase suppression, dose response, counter-screen for Shn3 inhibitor project, cell-based, Clone20-Shn3RL, cherry-picked (AID 624133); assay type: functional
BJ [19] = assay: cytotoxicity toward BJ-TERT fibroblasts, dose response, cell-based, RAS-independent, luminescence (AID 1933); assay type: functional; conditions: Homo sapiens
BJ [20] = assay: cells; assay type: functional, cell-based; conditions: Homo sapiens
BJ [21] = assay: cytotoxicity toward BJ-TERT-LT-ST fibroblasts, dose response, cell-based, RAS-independent, luminescence (AID 1935); assay type: functional; conditions: Homo sapiens;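 note: BJ fibroblasts immortalized with TERT plus LT and ST oncogenes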
[22] = cytotoxicity toward DRD oncogenic fibroblasts, dose response, cell-based, non-viral oncogenic, luminescence (AID 1934); assay type: functional; conditions: Homo sapiens
[23] = target: Neurotensin receptor type 1 (Homo sapiens, UniProt P30989); assay type: functional;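 note: Image-based confirmatory dose-response assay measuring agonist activity at NTR1; NTR1-expressing U2OS osteosarcoma cells imaged for beta-arrestin GFP spot formation; agonist potency where compounds increase beta-arrestin recruitment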
Vero [24] = assay: cells; assay type: functional, cell-based; conditions: Chlorocebus sabaeus
Vero [25] = assay: cells; assay type: functional; conditions: Chlorocebus sabaeus

T2 sequence (Q9Y2T6 whole entry): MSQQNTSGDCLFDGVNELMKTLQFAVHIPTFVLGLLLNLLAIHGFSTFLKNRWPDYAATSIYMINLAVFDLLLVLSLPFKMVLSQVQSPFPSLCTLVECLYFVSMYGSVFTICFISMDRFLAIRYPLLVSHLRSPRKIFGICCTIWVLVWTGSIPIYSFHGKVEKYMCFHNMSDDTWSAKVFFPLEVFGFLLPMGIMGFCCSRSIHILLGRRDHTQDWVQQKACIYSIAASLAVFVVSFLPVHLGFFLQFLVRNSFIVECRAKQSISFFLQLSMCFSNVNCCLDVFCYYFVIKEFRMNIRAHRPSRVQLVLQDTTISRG
Sequence of Polyadenylate-binding protein 1 (P11940 whole entry): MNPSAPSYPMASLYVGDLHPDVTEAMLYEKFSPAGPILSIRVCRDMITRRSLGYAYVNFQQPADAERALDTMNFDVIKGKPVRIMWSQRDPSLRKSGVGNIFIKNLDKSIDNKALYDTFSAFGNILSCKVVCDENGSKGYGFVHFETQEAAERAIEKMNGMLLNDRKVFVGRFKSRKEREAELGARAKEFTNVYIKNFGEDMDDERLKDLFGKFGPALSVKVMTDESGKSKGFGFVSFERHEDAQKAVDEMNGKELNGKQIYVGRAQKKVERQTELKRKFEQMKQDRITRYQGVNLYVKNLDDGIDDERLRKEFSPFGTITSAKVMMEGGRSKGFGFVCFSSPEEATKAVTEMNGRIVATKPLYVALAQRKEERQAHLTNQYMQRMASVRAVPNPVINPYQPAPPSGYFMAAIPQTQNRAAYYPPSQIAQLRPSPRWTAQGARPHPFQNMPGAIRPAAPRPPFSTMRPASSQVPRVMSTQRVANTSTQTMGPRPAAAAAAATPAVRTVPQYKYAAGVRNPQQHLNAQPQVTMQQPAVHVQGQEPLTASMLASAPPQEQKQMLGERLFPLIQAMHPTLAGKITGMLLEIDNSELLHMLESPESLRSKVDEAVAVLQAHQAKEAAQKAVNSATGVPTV
T5 sequence (P41145 whole entry): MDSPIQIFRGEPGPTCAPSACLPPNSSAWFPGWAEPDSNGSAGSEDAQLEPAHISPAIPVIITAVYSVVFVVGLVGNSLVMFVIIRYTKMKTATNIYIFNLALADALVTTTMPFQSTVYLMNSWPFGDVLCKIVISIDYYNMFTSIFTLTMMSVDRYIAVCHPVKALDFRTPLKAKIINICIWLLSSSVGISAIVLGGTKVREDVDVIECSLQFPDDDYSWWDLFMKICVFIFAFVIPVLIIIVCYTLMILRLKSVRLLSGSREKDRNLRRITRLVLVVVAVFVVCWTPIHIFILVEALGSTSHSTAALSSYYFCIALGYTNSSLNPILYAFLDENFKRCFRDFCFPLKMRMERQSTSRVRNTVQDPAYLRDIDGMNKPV
T4 sequence (P41143 whole entry): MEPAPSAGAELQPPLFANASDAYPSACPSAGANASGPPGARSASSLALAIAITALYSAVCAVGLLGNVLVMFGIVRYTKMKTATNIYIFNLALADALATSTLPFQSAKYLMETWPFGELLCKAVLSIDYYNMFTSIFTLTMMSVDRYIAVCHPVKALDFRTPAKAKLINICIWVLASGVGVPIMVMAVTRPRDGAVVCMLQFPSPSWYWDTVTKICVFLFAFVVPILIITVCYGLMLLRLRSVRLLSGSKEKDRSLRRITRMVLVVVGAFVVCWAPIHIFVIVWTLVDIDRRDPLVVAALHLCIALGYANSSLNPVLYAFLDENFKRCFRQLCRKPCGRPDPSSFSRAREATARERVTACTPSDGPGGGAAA
Sequence of X-box-binding protein 1 (P17861 whole entry): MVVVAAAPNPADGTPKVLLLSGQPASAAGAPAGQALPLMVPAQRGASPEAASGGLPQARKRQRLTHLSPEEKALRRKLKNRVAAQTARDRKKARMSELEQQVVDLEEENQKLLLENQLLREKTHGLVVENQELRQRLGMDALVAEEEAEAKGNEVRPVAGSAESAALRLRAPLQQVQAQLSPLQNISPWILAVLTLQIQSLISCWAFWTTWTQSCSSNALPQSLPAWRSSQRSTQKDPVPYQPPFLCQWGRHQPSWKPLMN
Sequence of Mu-type opioid receptor (P35372 whole entry): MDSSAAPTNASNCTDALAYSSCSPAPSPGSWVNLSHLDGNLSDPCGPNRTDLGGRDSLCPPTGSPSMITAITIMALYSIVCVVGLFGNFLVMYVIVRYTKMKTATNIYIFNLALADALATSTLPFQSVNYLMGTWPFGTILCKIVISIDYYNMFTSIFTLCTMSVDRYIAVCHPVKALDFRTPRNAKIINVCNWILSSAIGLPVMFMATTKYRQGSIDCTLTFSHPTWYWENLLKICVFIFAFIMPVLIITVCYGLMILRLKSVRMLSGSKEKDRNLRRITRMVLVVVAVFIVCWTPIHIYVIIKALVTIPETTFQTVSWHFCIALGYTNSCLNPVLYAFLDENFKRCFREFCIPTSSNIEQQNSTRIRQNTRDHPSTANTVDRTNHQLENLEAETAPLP
Sequence of Induced myeloid leukemia cell differentiation protein Mcl-1 (Q07820 whole entry): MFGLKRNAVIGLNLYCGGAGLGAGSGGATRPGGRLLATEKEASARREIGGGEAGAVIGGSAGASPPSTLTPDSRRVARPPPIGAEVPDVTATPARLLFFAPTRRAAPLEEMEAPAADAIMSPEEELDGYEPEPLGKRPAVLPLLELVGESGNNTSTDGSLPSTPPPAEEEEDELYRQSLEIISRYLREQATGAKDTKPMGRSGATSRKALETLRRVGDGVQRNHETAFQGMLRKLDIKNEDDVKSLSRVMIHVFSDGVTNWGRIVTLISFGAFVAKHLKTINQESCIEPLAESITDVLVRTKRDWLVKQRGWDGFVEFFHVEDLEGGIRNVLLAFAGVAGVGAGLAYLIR
Sequence of Beta-galactosidase (Q8VNN2 whole entry): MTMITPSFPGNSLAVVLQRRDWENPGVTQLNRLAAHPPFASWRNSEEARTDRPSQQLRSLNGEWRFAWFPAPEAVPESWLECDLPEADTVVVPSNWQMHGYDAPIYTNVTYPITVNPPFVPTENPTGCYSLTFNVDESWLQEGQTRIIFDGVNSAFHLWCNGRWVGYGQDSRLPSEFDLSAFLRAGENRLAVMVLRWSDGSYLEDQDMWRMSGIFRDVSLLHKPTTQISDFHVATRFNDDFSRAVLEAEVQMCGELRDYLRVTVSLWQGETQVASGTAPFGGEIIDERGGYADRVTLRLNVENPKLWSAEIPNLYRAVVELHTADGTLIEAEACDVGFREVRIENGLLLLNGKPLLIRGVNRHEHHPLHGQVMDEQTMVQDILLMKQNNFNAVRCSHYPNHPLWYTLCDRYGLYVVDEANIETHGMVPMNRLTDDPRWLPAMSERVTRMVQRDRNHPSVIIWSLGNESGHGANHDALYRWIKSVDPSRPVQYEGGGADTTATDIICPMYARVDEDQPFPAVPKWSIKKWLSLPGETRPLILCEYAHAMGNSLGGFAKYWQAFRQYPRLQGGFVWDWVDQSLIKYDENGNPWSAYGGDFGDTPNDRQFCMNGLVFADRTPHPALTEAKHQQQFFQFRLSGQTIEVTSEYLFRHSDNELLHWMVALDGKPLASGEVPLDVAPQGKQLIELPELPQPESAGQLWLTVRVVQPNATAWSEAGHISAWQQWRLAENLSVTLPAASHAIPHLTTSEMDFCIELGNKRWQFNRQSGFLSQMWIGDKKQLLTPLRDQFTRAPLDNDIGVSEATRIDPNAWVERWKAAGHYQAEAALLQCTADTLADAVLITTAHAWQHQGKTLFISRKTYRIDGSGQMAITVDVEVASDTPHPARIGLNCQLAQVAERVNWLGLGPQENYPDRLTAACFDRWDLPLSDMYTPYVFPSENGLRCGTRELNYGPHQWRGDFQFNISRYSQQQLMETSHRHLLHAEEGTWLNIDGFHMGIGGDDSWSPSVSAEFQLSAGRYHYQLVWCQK
Sequence of Neurotensin receptor type 1 (P30989 whole entry): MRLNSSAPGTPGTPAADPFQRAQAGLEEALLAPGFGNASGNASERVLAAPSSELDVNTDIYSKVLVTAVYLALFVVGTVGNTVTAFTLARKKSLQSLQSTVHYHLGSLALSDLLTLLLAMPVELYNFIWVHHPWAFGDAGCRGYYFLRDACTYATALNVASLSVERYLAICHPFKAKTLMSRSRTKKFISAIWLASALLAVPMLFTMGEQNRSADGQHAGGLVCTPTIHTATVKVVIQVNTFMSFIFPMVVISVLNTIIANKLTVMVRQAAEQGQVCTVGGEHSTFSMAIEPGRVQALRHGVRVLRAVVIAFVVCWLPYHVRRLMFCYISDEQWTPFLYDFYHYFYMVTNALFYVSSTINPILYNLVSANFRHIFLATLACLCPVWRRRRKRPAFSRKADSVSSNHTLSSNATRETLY

Nc1c(Br)cc2c3c(cccc13)-c1ccccc1-2
IC50 (Hexokinase HKDC1): 4.58 µM (active)

Cc1ccc(C(=O)Oc2ccc(/C=C3\C(=N)N4N=C(N5CCOCC5)SC4=NC3=O)cc2)cc1
IC50 [1]: > 75 µM (active)

CC(C)(C)C(=O)C(Cl)C(=O)Nc1ccccc1 (stereo unspecified)
IC50 [2]: 696 nM (active)
AC50 [3]: 1.05 µM (active)

COc1ccc(-c2n(CC(=O)OC3CC(C)CCC3C(C)C)c3ccccc3[n+]2C)cc1 (stereo unspecified)
EC50 [4]: > 32 µM (inactive)

COc1ccc([N+](=O)[O-])cc1NC(=O)COC(=O)c1ccc(NC(N)=O)cc1
IC50 [5]: > 100 µM (inactive)
IC50 [6]: > 100 µM (inactive)

CNC(=O)COC(=O)c1cc(-c2ccco2)nc2ccccc12
IC50 (Coagulation factor XII): > 50 µM (inactive)

CCc1ccc2nc3sc(C(=O)Nc4nnc(CC)s4)c(N)c3cc2c1
IC50 [7]: 4.39 µM (not active)
IC50 [1]: > 150 µM (active)

CCOC(=O)CNC(=O)Cn1cnc2c(nnn2-c2cccc(Cl)c2)c1=O
IC50 (Coagulation factor XII): > 50 µM (inactive)

Cc1ccc(NC(=O)C(=O)NCC2OCCc3ccccc32)cc1 (stereo unspecified)
Absolute IC50 (XBP1) (X-box-binding protein 1): 10 µM

O=C(CSc1ccc(-c2ccco2)nn1)N1CCCCCC1
IC50 [5]: 69.4 µM (active)
IC50 [6]: > 100 µM (inactive)

CCc1nnc(NC(=O)c2cccc(C(=O)Nc3nnc(CC)s3)n2)s1
IC50 [8]: > 32 µM (inactive)
EC50 (Mu-type opioid receptor): > 32 µM (inactive)
IC50 [9]: 666 nM (active)
EC50 [10]: 829 nM (active)
EC50 [11]: > 32 µM (inactive)
IC50 [12]: 568 nM (active)
IC50 [13]: 100 µM (active)
IC50 [14]: 5 µM (inactive)
EC50 (Beta-galactosidase): > 31.5 µM (inactive)
IC50 [15]: > 32 µM
EC50 (Streptococcus): 3.5 µM (active)
AC50 (INS1): 678 nM (active)
AC50 [16]: 1.45 µM (active)
AC50 [17]: 5.56 µM (active)
AC50 [18]: 573 nM (active)

CCN(CC)c1ccc(C=C2C(=O)NC(=S)NC2=O)cc1
EC50 (BJ [19]): 13.5 µM (active)
EC50 (BJ [20]): 15.9 µM (active)
EC50 (BJ [21]): > 75 µM (inconclusive)
EC50 [22]: 10.8 µM (active)
EC50 [23]: 3.91 µM (active)
IC50 (Vero [24]): > 25 µM (active)
CC50 (Vero [25]): 13.9 µM (active)
